Starred links: 1 amine or outer side, 2 acyl side, 3 side chain; linkers in the order of their positions; H or OH if unused. Positions of bridges follow the written chain, without caps; N, C: chain ends. Non-standard residues stand in square brackets, D forms with d. Residues, ends and D or L forms follow the SMILES beside them. ξ: configuration not given here. *: point of attachment. Me3N+(CH2)2O(CH2)2O(CH2)2CO = C[N+](C)(C)CCOCCOCCC(=O)*; CH2CH2OCH2CH2OCH2CH2NMe3+ = C[N+](C)(C)CCOCCOCC*; Trp(7-Me) = Cc1cccc2c(C[C@H](N)C(=O)O)c[nH]c12; Abu(4-yl) = O=C([C@H](CC[*:3])N[*:1])[*:2]; 2Nal = N[C@@H](Cc1ccc2ccccc2c1)C(=O)O; AEF = NCCOc1ccc(C[C@H](N)C(=O)O)cc1; 3Pal = N[C@@H](Cc1cccnc1)C(=O)O; Lys(Me) = CNCCCC[C@H](N)C(=O)O; Pen = CC(C)(S)[C@H](N)C(=O)O; ξLys(Me) = CNCCCCC(N)C(=O)O; αMeC = C[C@](N)(CS)C(=O)O; Ac6c = NC1(C(=O)O)CCCCC1; Thp = NC1(C(=O)O)CCOCC1; Sar = CNCC(=O)O
Key:
[1] = Exposed Polar Surface Area (EPSA); type: physicochemical; conditions: SFC on Chirex 3014 column; sample 1 mM DMSO stock; read-out: EPSA
Summary of the method: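 Polarity descriptor in Å² derived from retention time using 8 calibration standards re-run every 20 compounds. Duplicate injections of 1 mM DMSO stock; linear 5–60% modifier gradient (20 mM ammonium formate in MeOH) with CO2 at 4 mL/min, 35 °C, on a Chirex 3014 column.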

IL-23R = molecular target: T1, IL-23R (Homo sapiens, UniProt Q5VWK5); test: IL23R Reporter Assay; type: cell-based; conditions: HEK293 cells containing IL-23R, IL-12RP1 and STAT-inducible firefly luciferase reporter; 10 ng/mL IL-23 (EC90); 5 h at 37° C.; read-out: IL23R Reporter Assay
T1 construct: host or cells: HEK293
T1 sequence (Q5VWK5 24-629): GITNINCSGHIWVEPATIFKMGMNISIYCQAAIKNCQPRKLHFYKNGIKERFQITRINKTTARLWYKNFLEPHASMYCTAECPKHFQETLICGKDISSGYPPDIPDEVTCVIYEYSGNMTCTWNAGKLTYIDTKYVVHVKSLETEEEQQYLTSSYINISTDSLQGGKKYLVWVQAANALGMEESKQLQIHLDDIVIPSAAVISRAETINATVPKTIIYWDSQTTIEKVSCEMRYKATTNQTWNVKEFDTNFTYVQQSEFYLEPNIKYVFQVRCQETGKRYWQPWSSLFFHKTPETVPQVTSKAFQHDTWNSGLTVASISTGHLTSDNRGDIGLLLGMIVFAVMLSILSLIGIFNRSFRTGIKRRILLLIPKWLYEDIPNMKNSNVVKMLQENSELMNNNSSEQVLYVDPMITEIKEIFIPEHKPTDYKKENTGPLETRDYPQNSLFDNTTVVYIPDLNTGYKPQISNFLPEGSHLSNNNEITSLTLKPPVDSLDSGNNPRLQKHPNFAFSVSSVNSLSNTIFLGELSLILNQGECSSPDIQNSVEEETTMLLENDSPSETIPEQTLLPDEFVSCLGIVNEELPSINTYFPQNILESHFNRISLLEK

SMILES | EPSA [1] [A^2] | IC50 (IL-23R) [nM]
CC(=O)NC(COCCOCC[N+](C)(C)C)C(=O)N[C@@H]1C(=O)N[C@@H](CC(=O)N(C)C)C(=O)N[C@@H]([C@@H](C)O)C(=O)N[C@@H](Cc2c[nH]c3c(C)cccc23)C(=O)N[C@@H](CCCCN(C)C(C)=O)C(=O)N[C@H](C(=O)N[C@@H](Cc2ccc(OCCn3cc(CCCC[N+](C)(C)C)nn3)cc2)C(=O)N[C@@H](Cc2ccc3ccccc3c2)C(=O)NC2(C(=O)N[C@@H](CCCCN(C)C(C)=O)C(=O)N[C@@H](CC(N)=O)C(=O)N[C@@H](Cc3cccnc3)C(=O)N(C)CC(=O)N(C)C)CCOCC2)C(C)(C)SSC1(C)C (mixture of isomers) [compound 545, MeCO-APEG2Ser(RS)-Pen(3)-N(N(Me)2)-T-7MeW-K(NMeAc)-Pen(3)-Y(OTzlTMA4)-2Nal-THP-K(NMeAc)-N-3Pya-Sar-CON(Me)2] | 154 | 0.83
CC(=O)NCCCC[C@@H]1NC(=O)[C@H](Cc2c[nH]c3c(C)cccc23)NC(=O)[C@H]([C@@H](C)O)NC(=O)[C@H](CC(N)=O)NC(=O)[C@@H](NC(=O)C(COCCOCC[N+](C)(C)C)NC(C)=O)C(C)(C)SSC(C)(C)[C@@H](C(=O)N[C@@H](Cc2ccc(OCCN)cc2)C(=O)N[C@@H](Cc2ccc3ccccc3c2)C(=O)NC2(C(=O)N[C@@H](CCC(=O)O)C(=O)N[C@@H](CC(N)=O)C(=O)N[C@@H](Cc3cccnc3)C(=O)N(C)CC(N)=O)CCOCC2)NC1=O (mixture of isomers) [compound 553, MeCO-APEG2Ser(RS)-Pen(3)-N-T-7MeW-K(Ac)-Pen(3)-AEF-2Nal-THP-E-N-3Pya-Sar-CONH2] | 185 | 4.5
CC(=O)NCCCC[C@H](NC(=O)C1(NC(=O)[C@H](Cc2ccc3ccccc3c2)NC(=O)[C@H](Cc2ccc(OCCN)cc2)NC(=O)[C@H]2NC(=O)[C@H](CCCCN(C)C(C)=O)NC(=O)[C@H](Cc3c[nH]c4c(C)cccc34)NC(=O)[C@H]([C@@H](C)O)NC(=O)[C@H](CC(N)=O)NC(=O)[C@@H](NC(=O)C(COCCOCC[N+](C)(C)C)NC(C)=O)C(C)(C)SSC2(C)C)CCOCC1)C(=O)N[C@@H](CC(N)=O)C(=O)N[C@@H](Cc1cccnc1)C(=O)N(C)CC(N)=O (mixture of isomers) [compound 554, MeCO-APEG2Ser(RS)-Pen(3)-N-T-7MeW-K(Ac)-Pen(3)-AEF-2Nal-THP-K(Ac)-N-3Pya-Sar-CONH2] | 171 | 3
CC(=O)NCCCC[C@@H]1NC(=O)[C@H](Cc2c[nH]c3c(C)cccc23)NC(=O)[C@H]([C@@H](C)O)NC(=O)[C@H](CC(N)=O)NC(=O)[C@@H](NC(=O)C(COCCOCC[N+](C)(C)C)NC(C)=O)C(C)(C)SSC(C)(C)[C@@H](C(=O)N[C@@H](Cc2ccc(OCCCCC[N+](C)(C)C)cc2)C(=O)N[C@@H](Cc2ccc3ccccc3c2)C(=O)NC2(C(=O)N[C@@H](CCCCNC(C)=O)C(=O)N[C@@H](CC(N)=O)C(=O)N[C@@H](Cc3cccnc3)C(=O)N(C)CC(N)=O)CCOCC2)NC1=O (mixture of isomers) [compound 556, MeCO-APEG2Ser(RS)-Pen(3)-N-T-7MeW-K(Ac)-Pen(3)-TMAPF-2Nal-THP-K(Ac)-N-3Pya-Sar-CONH2] | 163 | 5.9
CC(=O)NCCCC[C@@H]1NC(=O)[C@H](Cc2c[nH]c3ccccc23)NC(=O)[C@H]([C@@H](C)O)NC(=O)[C@H](CC(N)=O)NC(=O)[C@@H](NC(=O)[C@@H](CCCNC(=N)N)NC(=O)CCOCCOCC[N+](C)(C)C)CCSC[C@@](C)(C(=O)N[C@@H](Cc2ccc(OCCN)cc2)C(=O)N[C@@H](Cc2ccc3ccccc3c2)C(=O)NC2(C(=O)N[C@@H](CCCCNC(C)=O)C(=O)N[C@@H](CC(N)=O)C(=O)N[C@@H](Cc3cccnc3)C(=O)N(C)CC(N)=O)CCCCC2)NC1=O [compound 548, cPEG3aCO-r-Abu(1)-N-T-W-K(Ac)-aMeC(1)-AEF-2Nal-THP-K(Ac-N-3Pya-Sar-CONH2] ({Me3N+(CH2)2O(CH2)2O(CH2)2CO}-[dR][Abu(4-yl)]NTWK(Ac)[αMeC][AEF][2Nal][Ac6c]K(Ac)N[3Pal][Sar]-NH2; thioether 2-7) |  | 6.4
CC(=O)NCCCC[C@@H]1NC(=O)[C@H](Cc2c[nH]c3c(C)cccc23)NC(=O)[C@H]([C@@H](C)O)NC(=O)[C@H](CC(N)=O)NC(=O)[C@@H](NC(C)=O)C(C)(C)SSC(C)(C)[C@@H](C(=O)N[C@@H](Cc2ccc(OCCCC[N+](C)(C)C)cc2)C(=O)N[C@@H](Cc2ccc3ccccc3c2)C(=O)NC2(C(=O)N[C@@H](CCC(=O)O)C(=O)N[C@@H](CC(N)=O)C(=O)N[C@@H](Cc3cccnc3)C(=O)N(C)CC(N)=O)CCOCC2)NC1=O [compound 550, MeCO-Pen(3)-N-T-7MeW-K(Ac)-Pen(3)-TMA4F-2Nal-THP-N-3Pya-Sar-CONH2] |  | 5.5
CC(=O)NCCCC[C@@H]1NC(=O)[C@H](Cc2c[nH]c3c(C)cccc23)NC(=O)[C@H]([C@@H](C)O)NC(=O)[C@H](CC(N)=O)NC(=O)[C@@H](NC(=O)CCOCCOCC[N+](C)(C)C)C(C)(C)SSC(C)(C)[C@@H](C(=O)N[C@@H](Cc2ccc(OC(F)F)cc2)C(=O)N[C@@H](Cc2ccc3ccccc3c2)C(=O)NC2(C(=O)N[C@@H](CCCCNC(C)=O)C(=O)N[C@@H](CC(N)=O)C(=O)N[C@@H](Cc3cccnc3)C(=O)N(C)CC(N)=O)CCOCC2)NC1=O [compound 551, cPEG3aCO-Pen(3)-N-T-7MeW-K(Ac)-Pen(3)-YCF2H-2Nal-THP-K(Ac-N-3Pya-Sar-CONH2] |  | 5.5
CC(=O)N(C)CCCC[C@@H]1NC(=O)[C@H](Cc2c[nH]c3c(C)cccc23)NC(=O)[C@H]([C@@H](C)O)NC(=O)[C@H](CC(=O)N(C)C)NC(=O)[C@@H](NC(=O)CCOCCOCC[N+](C)(C)C)C(C)(C)SSC(C)(C)[C@@H](C(=O)N[C@@H](Cc2ccc(OCCNC(=O)CCOCCOCC[N+](C)(C)C)cc2)C(=O)N[C@@H](Cc2ccc3ccccc3c2)C(=O)NC2(C(=O)N[C@@H](CCCCN(C)C(C)=O)C(=O)N[C@@H](CC(N)=O)C(=O)N[C@@H](Cc3cccnc3)C(=O)N(C)CC(=O)N(C)C)CCOCC2)NC1=O [compound 571, cPEG3aCO-Pen(3)-N(N(Me)2)-T-7MeW-K(NMeAc)-Pen(3)-AEF(cPEG3a)-2Nal-THP-K(NMeAc)-N-3Pya-Sar-CONMe2] ({Me3N+(CH2)2O(CH2)2O(CH2)2CO}-[Pen]D(NMe2)T[Trp(7-Me)][Lys(Me)](Ac)[Pen][AEF](Me3N+(CH2)2O(CH2)2O(CH2)2CO)[2Nal][Thp][Lys(Me)](Ac)N[3Pal][Sar]-NMe2; disulfide 1-6) |  | 3.5
CC(=O)N(C)CCCCC(NC(=O)C1(NC(=O)[C@H](Cc2ccc3ccccc3c2)NC(=O)[C@H](Cc2ccc(OCCOCCOCC[N+](C)(C)C)cc2)NC(=O)[C@H]2NC(=O)[C@H](CCCCN(C)C(C)=O)NC(=O)[C@H](Cc3c[nH]c4c(C)cccc34)NC(=O)[C@H]([C@@H](C)O)NC(=O)[C@H](CC(=O)N(C)C)NC(=O)[C@@H](NC(=O)CCOCCOCC[N+](C)(C)C)C(C)(C)SSC2(C)C)CCOCC1)C(=O)N[C@@H](CC(N)=O)C(=O)N[C@@H](C)C(=O)N(C)CC(=O)N(C)C (stereo partly shown) [compound 574, cPEG3aCO-Pen(3)-N(N(Me)2)-T-7MeW-K(NMeAc)-Pen(3)-APEG3F-2Nal-THP-K(NMeAc)-N-A-Sar-CON(Me)2] ({Me3N+(CH2)2O(CH2)2O(CH2)2CO}-[Pen]D(NMe2)T[Trp(7-Me)][Lys(Me)](Ac)[Pen]Y(CH2CH2OCH2CH2OCH2CH2NMe3+)[2Nal][Thp][ξLys(Me)](Ac)NA[Sar]-NMe2; disulfide 1-6) |  | 1390

Reference: patent publication US20260022143A1, “Cyclic Peptide Inhibitors of IL-23” (JANSSEN PHARMACEUTICA NV, priority 2022, published 2026)
